The structures appear in SMILES notation. Some results are limits rather than exact numbers.

In test [1] the target is T1, Bone morphogenetic protein receptor type-2 (Homo sapiens, UniProt Q13873).
T1 sequence (Q13873 whole entry): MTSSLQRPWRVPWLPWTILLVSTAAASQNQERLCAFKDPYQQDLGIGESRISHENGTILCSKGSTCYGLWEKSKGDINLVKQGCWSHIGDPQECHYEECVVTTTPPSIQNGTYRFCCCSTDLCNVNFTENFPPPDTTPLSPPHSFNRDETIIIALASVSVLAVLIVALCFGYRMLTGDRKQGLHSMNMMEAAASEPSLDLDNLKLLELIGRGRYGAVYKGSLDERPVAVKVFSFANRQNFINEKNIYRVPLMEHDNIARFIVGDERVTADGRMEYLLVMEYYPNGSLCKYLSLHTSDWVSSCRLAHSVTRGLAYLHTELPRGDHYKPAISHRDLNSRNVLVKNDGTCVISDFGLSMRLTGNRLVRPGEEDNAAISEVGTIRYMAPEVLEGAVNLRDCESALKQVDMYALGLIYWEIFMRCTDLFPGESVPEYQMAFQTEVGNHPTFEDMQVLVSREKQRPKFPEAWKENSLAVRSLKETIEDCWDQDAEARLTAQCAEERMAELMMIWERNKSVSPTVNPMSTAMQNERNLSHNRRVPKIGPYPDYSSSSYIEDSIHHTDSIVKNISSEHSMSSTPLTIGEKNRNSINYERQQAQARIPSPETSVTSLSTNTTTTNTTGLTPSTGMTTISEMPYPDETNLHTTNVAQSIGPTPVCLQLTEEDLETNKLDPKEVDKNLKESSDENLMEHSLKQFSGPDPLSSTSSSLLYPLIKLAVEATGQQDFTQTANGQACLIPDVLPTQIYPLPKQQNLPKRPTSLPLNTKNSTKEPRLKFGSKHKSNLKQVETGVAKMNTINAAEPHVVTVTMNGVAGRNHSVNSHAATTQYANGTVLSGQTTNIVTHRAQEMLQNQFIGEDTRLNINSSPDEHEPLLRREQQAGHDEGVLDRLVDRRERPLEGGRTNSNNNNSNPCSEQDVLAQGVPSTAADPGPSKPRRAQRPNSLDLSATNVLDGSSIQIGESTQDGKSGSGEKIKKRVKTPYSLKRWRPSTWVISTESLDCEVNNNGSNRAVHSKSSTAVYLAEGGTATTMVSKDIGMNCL

For test [2], the target named is Tyrosine-protein kinase ABL1 (Homo sapiens, UniProt P00519, M351T).
For test [3], the target named is Serine/threonine-protein kinase tousled-like 2 (Homo sapiens, UniProt Q86UE8).
Sequence of Serine/threonine-protein kinase tousled-like 2 (Q86UE8 whole entry): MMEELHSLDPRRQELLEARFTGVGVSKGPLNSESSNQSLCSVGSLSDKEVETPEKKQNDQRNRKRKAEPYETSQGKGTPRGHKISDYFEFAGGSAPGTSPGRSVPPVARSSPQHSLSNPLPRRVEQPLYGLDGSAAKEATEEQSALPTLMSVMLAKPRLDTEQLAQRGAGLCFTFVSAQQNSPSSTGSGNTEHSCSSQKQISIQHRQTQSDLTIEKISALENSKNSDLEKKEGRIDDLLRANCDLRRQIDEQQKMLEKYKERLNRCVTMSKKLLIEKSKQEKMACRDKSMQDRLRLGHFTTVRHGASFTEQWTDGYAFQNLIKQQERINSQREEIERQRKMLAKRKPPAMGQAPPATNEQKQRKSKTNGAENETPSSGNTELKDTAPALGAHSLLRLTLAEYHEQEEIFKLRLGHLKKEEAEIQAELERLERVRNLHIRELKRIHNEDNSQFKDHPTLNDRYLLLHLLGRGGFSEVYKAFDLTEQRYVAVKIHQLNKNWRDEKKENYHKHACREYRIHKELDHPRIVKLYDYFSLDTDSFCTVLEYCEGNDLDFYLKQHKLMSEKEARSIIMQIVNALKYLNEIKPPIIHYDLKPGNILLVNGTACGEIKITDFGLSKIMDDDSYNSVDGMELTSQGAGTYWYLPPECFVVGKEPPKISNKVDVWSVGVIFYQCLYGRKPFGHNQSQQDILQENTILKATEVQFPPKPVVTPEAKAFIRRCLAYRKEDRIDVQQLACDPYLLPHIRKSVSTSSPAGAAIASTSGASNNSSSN
In test [4] the target is T2, Tyrosine-protein kinase JAK3 (Homo sapiens, UniProt P52333).
T2 sequence (P52333 whole entry): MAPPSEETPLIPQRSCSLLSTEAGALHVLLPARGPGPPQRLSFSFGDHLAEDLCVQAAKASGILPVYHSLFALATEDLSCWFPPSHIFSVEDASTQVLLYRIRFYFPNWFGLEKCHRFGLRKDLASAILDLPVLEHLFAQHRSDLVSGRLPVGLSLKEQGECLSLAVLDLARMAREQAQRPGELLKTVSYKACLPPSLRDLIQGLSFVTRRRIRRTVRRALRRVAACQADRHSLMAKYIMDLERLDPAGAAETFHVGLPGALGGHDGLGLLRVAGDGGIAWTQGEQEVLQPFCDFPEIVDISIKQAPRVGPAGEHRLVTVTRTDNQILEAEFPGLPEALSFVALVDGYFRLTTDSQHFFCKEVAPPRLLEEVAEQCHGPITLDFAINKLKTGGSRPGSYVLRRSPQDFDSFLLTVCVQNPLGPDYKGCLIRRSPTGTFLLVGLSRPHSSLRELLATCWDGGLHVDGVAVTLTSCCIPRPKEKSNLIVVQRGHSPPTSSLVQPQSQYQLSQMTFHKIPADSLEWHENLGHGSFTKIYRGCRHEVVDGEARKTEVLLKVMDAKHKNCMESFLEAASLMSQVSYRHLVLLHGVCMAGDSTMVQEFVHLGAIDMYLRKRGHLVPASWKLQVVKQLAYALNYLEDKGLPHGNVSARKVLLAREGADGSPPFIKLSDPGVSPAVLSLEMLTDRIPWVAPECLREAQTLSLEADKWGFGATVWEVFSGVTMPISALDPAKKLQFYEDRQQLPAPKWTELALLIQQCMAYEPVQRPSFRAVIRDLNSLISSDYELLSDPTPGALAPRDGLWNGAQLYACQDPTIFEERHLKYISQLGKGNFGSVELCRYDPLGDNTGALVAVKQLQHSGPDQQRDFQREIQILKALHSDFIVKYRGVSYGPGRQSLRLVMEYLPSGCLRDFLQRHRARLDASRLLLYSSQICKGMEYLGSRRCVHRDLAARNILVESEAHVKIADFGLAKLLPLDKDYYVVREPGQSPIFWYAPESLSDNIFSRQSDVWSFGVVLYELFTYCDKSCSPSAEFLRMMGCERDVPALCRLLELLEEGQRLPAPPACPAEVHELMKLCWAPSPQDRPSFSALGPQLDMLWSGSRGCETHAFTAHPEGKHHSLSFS

In test [5] the target is Myosin light chain kinase, smooth muscle (Homo sapiens, UniProt Q15746).
Sequence of Myosin light chain kinase, smooth muscle (Q15746 whole entry): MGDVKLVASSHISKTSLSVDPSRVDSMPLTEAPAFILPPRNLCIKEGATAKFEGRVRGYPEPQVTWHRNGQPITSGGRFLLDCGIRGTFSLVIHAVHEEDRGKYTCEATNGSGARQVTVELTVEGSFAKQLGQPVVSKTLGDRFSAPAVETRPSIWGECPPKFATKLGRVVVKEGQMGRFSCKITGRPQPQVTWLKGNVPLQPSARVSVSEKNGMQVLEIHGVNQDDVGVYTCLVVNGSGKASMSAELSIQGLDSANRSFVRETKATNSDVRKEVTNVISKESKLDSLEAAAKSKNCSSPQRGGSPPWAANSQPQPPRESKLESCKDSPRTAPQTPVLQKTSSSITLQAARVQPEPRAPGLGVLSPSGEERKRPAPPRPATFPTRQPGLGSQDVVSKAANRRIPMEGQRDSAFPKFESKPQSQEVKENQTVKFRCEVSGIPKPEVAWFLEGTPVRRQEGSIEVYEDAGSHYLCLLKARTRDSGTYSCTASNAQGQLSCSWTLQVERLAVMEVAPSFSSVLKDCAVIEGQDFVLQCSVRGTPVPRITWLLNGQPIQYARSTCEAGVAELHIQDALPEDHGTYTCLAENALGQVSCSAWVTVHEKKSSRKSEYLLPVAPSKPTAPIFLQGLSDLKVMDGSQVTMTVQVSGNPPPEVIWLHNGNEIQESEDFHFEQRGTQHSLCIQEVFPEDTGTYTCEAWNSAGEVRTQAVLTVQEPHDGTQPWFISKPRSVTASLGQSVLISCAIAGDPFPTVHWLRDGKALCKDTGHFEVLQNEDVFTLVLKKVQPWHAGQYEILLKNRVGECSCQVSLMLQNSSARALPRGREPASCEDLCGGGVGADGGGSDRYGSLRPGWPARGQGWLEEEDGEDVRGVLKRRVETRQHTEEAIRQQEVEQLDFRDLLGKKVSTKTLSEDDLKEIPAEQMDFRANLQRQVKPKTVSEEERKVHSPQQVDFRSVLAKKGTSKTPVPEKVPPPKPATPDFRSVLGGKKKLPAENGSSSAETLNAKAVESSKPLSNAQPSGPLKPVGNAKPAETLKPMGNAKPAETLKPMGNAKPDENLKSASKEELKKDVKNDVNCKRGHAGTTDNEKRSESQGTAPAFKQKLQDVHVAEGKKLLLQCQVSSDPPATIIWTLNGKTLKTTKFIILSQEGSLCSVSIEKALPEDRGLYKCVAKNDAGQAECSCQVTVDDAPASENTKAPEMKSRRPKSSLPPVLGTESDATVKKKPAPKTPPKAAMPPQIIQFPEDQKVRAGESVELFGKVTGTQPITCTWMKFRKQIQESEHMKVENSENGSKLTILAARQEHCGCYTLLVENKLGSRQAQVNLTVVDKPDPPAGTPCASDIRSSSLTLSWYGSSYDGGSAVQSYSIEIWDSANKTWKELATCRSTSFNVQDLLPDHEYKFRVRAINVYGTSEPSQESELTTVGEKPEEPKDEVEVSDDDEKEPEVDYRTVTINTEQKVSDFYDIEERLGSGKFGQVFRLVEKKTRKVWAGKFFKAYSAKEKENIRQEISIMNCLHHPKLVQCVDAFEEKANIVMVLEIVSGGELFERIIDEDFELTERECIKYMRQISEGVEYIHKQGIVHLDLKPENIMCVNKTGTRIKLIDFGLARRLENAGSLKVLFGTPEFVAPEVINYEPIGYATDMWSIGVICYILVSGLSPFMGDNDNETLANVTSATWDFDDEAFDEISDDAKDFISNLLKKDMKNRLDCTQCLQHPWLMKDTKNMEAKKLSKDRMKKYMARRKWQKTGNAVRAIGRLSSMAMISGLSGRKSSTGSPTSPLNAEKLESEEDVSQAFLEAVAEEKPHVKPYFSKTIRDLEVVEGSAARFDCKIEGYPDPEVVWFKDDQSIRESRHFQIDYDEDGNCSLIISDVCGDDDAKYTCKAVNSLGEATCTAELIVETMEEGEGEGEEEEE
Test [6] deals with T3, Tyrosine-protein kinase ITK/TSK (Homo sapiens, UniProt Q08881).
T3 sequence (Q08881 whole entry): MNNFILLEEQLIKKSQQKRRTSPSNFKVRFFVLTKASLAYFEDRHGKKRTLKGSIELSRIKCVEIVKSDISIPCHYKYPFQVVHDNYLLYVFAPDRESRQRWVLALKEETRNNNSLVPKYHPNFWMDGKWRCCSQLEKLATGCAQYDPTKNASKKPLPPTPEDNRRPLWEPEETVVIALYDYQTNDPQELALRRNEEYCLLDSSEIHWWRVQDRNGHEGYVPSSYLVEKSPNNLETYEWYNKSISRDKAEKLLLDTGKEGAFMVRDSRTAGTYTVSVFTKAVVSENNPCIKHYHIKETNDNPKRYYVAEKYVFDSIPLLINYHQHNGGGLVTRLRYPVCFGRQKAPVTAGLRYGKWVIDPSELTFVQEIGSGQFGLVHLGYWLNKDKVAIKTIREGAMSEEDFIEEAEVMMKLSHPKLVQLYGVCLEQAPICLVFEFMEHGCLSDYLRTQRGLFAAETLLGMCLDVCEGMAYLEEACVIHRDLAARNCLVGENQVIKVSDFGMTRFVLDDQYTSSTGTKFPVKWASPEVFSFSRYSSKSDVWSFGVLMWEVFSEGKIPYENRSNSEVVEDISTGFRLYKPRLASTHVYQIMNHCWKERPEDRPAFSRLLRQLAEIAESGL

The target of test [7] is Tyrosine-protein kinase ABL1 (Homo sapiens, UniProt P00519, Y253F).

What is called Kd is the free concentration of one partner at which half of the binding sites on the other are occupied at equilibrium, for simple one-to-one binding. Regarding `Oc1ccc(-c2nc(-c3ccncc3)c(-c3ccc(F)cc3)[nH]2)cc1` [SB-202190], the Kd in test [1], in test [2], in test [3], in test [4], in test [5] and in test [6] was above 10 µM each time. The molecule further gave a Kd in test [7] above 10 µM.
Take `COCC(=O)NC/C=C/c1ccc2ncnc(Nc3ccc(Oc4ccc(C)nc4)c(C)c3)c2c1` [CP-724714]: the Kd in test [1], in test [2], in test [3], in test [4], in test [5] and in test [6] was above 10 µM each time. In addition, in test [7], the Kd was above 10 µM.
`Nc1nc(Nc2ccc(S(N)(=O)=O)cc2)nn1C(=O)c1c(F)cccc1F` [JNJ-7706621] had a Kd in test [6] above 10 µM.
Turning to `NC(=O)c1ccc(-c2nc(-c3ccc4c(c3)OCO4)c(-c3ccccn3)[nH]2)cc1` [SB-431542], the equilibrium dissociation constant (Kd) in test [1], in test [2], in test [3], in test [4], in test [5] and in test [6] was above 10 µM each time. Further, the dissociation constant Kd in test [7] is above 10 µM.
Regarding `CCOc1cc2ncc(C#N)c(Nc3ccc(F)c(Cl)c3)c2cc1NC(=O)/C=C/CN(C)C` [PELITINIB], the Kd in test [1] is above 10 µM; in test [3], above 10 µM; in test [4], 0.025 µM; in test [5], above 10 µM.

The values above are taken from ChEMBL document CHEMBL1150977, “A quantitative analysis of kinase inhibitor selectivity” (Nat Biotechnol, 2008).
